Results: ChEMBL document CHEMBL4507303, “Data for DCP probe TP-004” (2021)

Columns and labels:
[1] = target: Dual specificity tyrosine-phosphorylation-regulated kinase 2 (Homo sapiens) (UniProt Q92630); conditions: Compound concentration 1000.0 nM
[2] = target: 5-hydroxytryptamine receptor 5A (Homo sapiens) (UniProt P47898); conditions: Compound concentration 10.0 uM
[3] = target: Inhibitor of nuclear factor kappa-B kinase subunit beta (Homo sapiens) (UniProt O14920); conditions: Compound concentration 1000.0 nM
[4] = target: Mitogen-activated protein kinase kinase kinase 6 (Homo sapiens) (UniProt O95382); conditions: Compound concentration 1000.0 nM
[5] = target: Serine/threonine-protein kinase Nek4 (Homo sapiens) (UniProt P51957); conditions: Compound concentration 1000.0 nM
[6] = target: 5-hydroxytryptamine receptor 7 (Homo sapiens) (UniProt P34969); conditions: Compound concentration 10.0 uM
[7] = target: Megakaryocyte-associated tyrosine-protein kinase (Homo sapiens) (UniProt P42679); conditions: Compound concentration 1000.0 nM
[8] = target: Dual specificity mitogen-activated protein kinase kinase 2 (Homo sapiens) (UniProt P36507); conditions: Compound concentration 1000.0 nM
[9] = target: Tyrosine-protein kinase ABL2 (Homo sapiens) (UniProt P42684); conditions: Compound concentration 1000.0 nM
[10] = target: Mitogen-activated protein kinase kinase kinase 12 (Homo sapiens) (UniProt Q12852); conditions: Compound concentration 1000.0 nM
[11] = target: Mitogen-activated protein kinase kinase kinase kinase 2 (Homo sapiens) (UniProt Q12851); conditions: Compound concentration 1000.0 nM
[12] = test system: Proto-oncogene tyrosine-protein kinase receptor Ret (Homo sapiens), P07949 [V804L]; conditions: Compound concentration 1000.0 nM
[13] = target: Ephrin type-B receptor 6 (Homo sapiens) (UniProt O15197); conditions: Compound concentration 1000.0 nM
[14] = target: Tyrosine-protein kinase Srms (Homo sapiens) (UniProt Q9H3Y6); conditions: Compound concentration 1000.0 nM
[15] = test system: Mast/stem cell growth factor receptor Kit (Homo sapiens), P10721 [V559D,T670I]; conditions: Compound concentration 1000.0 nM
[16] = target: LIM domain kinase 2 (Homo sapiens) (UniProt P53671); conditions: Compound concentration 1000.0 nM
[17] = target: Homeodomain-interacting protein kinase 1 (Homo sapiens) (UniProt Q86Z02); conditions: Compound concentration 1000.0 nM
[18] = target: Beta-2 adrenergic receptor (Homo sapiens) (UniProt P07550); conditions: Compound concentration 10.0 uM
[19] = target: Receptor-interacting serine/threonine-protein kinase 4 (Homo sapiens) (UniProt P57078); conditions: Compound concentration 1000.0 nM
[20] = target: RAC-beta serine/threonine-protein kinase (Homo sapiens) (UniProt P31751); conditions: Compound concentration 1000.0 nM
[21] = test system: Epidermal growth factor receptor (Homo sapiens), P00533 [UNDEFINED MUTATION]; conditions: Compound concentration 1000.0 nM
[22] = target: Serine/threonine-protein kinase ULK3 (Homo sapiens) (UniProt Q6PHR2); conditions: Compound concentration 1000.0 nM
[23] = test system: Epidermal growth factor receptor (Homo sapiens), P00533 [UNDEFINED MUTATION]; conditions: Compound concentration 1000.0 nM; remark: listed apart in the source
[24] = target: Casein kinase I isoform gamma-3 (Homo sapiens) (UniProt Q9Y6M4); conditions: Compound concentration 1000.0 nM
[25] = target: Muscle, skeletal receptor tyrosine-protein kinase (Homo sapiens) (UniProt O15146); conditions: Compound concentration 1000.0 nM
[26] = target: Serine/threonine-protein kinase NLK (Homo sapiens) (UniProt Q9UBE8); conditions: Compound concentration 1000.0 nM
[27] = target: Serine/threonine-protein kinase 4 (Homo sapiens) (UniProt Q13043); conditions: Compound concentration 1000.0 nM
[28] = target: Serine/threonine-protein kinase RIO3 (Homo sapiens) (UniProt O14730); conditions: Compound concentration 1000.0 nM
[29] = target: Serine/threonine-protein kinase LATS2 (Homo sapiens) (UniProt Q9NRM7); conditions: Compound concentration 1000.0 nM
[30] = test system: Tyrosine-protein kinase ABL1 (Homo sapiens), P00519 [T315I]; conditions: Compound concentration 1000.0 nM
[31] = test system: Tyrosine-protein kinase ABL1 (Homo sapiens), P00519 [Y253F]; conditions: Compound concentration 1000.0 nM
[32] = target: High affinity nerve growth factor receptor (Homo sapiens) (UniProt P04629); conditions: Compound concentration 1000.0 nM
[33] = test system: Tyrosine-protein kinase ABL1 (Homo sapiens), P00519 [H396P]; conditions: Compound concentration 1000.0 nM
[34] = target: Casein kinase I isoform gamma-2 (Homo sapiens) (UniProt P78368); conditions: Compound concentration 1000.0 nM
[35] = target: Serine/threonine-protein kinase DCLK1 (Homo sapiens) (UniProt O15075); conditions: Compound concentration 1000.0 nM
[36] = target: Serine/threonine-protein kinase 32A (Homo sapiens) (UniProt Q8WU08); conditions: Compound concentration 1000.0 nM
[37] = target: Serine/threonine-protein kinase mTOR (Homo sapiens) (UniProt P42345); conditions: Compound concentration 1000.0 nM
[38] = target: Fibroblast growth factor receptor 4 (Homo sapiens) (UniProt P22455); conditions: Compound concentration 1000.0 nM
[39] = target: Serine/threonine-protein kinase MARK1 (Homo sapiens) (UniProt Q9P0L2); conditions: Compound concentration 1000.0 nM
[40] = target: Ribosomal protein S6 kinase alpha-6 (Homo sapiens) (UniProt Q9UK32); conditions: Compound concentration 1000.0 nM
[41] = target: Bone morphogenetic protein receptor type-2 (Homo sapiens) (UniProt Q13873); conditions: Compound concentration 1000.0 nM
[42] = target: Dual specificity protein kinase CLK1 (Homo sapiens) (UniProt P49759); conditions: Compound concentration 1000.0 nM
[43] = target: Myosin light chain kinase, smooth muscle (Homo sapiens) (UniProt Q15746); conditions: Compound concentration 1000.0 nM
[44] = target: Casein kinase II subunit alpha' (Homo sapiens) (UniProt P19784); conditions: Compound concentration 1000.0 nM
[45] = target: Mitogen-activated protein kinase kinase kinase kinase 5 (Homo sapiens) (UniProt Q9Y4K4); conditions: Compound concentration 1000.0 nM
Sequence of Mitogen-activated protein kinase kinase kinase kinase 5 (Homo sapiens) (Q9Y4K4 whole entry, looked up): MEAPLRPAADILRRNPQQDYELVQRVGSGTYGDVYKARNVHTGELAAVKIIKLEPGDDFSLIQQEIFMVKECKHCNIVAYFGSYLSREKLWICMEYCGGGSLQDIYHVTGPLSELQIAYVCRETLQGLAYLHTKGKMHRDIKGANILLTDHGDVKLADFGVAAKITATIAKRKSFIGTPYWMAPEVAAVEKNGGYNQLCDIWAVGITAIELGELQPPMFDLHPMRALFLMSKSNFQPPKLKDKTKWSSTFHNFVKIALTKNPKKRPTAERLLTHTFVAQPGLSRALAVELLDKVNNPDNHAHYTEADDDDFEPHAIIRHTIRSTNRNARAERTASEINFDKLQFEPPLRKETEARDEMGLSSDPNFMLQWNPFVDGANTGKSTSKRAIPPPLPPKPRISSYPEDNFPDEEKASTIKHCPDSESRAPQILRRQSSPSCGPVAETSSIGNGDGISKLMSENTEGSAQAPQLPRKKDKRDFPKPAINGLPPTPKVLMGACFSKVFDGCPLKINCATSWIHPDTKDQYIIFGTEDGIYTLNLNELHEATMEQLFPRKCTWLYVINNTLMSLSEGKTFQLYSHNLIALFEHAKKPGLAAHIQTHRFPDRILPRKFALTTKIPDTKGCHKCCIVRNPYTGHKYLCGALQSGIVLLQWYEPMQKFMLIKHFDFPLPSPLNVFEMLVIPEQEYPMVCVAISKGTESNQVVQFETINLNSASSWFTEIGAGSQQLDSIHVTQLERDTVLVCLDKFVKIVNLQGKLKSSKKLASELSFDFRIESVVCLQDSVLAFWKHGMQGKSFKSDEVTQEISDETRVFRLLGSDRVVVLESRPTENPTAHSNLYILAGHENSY

Sequence of Epidermal growth factor receptor (Homo sapiens), P00533 [UNDEFINED MUTATION] (P00533 whole entry, looked up, change not shown, canonical isoform): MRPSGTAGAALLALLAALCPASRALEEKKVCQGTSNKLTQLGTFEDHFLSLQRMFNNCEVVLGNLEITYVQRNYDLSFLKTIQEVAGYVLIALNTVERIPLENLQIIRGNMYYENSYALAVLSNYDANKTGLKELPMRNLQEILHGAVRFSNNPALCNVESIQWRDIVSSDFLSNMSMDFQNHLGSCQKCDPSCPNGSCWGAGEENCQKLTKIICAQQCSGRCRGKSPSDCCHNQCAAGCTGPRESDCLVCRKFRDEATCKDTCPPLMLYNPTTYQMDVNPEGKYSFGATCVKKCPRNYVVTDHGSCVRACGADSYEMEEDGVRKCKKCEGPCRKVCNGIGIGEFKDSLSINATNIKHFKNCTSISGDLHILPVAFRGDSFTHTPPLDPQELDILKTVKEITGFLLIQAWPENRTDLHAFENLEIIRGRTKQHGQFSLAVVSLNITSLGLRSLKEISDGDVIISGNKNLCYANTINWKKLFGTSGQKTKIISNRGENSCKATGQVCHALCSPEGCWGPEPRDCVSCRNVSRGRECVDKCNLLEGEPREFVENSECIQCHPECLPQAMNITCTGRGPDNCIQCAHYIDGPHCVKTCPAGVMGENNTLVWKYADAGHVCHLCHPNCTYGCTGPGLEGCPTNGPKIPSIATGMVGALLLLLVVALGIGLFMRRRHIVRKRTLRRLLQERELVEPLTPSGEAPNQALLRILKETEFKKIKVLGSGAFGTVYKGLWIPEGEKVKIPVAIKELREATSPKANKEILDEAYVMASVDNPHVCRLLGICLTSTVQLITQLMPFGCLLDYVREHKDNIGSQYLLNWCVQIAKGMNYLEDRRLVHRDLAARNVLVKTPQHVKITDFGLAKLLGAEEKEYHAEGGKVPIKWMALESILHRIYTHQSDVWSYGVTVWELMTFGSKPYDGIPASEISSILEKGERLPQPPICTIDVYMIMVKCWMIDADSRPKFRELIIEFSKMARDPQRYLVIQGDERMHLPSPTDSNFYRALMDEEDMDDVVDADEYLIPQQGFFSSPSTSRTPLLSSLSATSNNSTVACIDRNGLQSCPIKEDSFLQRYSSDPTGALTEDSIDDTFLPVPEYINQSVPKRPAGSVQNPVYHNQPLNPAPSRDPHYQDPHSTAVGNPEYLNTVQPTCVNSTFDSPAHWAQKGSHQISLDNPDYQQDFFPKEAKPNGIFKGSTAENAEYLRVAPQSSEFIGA
Sequence of Mitogen-activated protein kinase kinase kinase 12 (Homo sapiens) (Q12852 whole entry): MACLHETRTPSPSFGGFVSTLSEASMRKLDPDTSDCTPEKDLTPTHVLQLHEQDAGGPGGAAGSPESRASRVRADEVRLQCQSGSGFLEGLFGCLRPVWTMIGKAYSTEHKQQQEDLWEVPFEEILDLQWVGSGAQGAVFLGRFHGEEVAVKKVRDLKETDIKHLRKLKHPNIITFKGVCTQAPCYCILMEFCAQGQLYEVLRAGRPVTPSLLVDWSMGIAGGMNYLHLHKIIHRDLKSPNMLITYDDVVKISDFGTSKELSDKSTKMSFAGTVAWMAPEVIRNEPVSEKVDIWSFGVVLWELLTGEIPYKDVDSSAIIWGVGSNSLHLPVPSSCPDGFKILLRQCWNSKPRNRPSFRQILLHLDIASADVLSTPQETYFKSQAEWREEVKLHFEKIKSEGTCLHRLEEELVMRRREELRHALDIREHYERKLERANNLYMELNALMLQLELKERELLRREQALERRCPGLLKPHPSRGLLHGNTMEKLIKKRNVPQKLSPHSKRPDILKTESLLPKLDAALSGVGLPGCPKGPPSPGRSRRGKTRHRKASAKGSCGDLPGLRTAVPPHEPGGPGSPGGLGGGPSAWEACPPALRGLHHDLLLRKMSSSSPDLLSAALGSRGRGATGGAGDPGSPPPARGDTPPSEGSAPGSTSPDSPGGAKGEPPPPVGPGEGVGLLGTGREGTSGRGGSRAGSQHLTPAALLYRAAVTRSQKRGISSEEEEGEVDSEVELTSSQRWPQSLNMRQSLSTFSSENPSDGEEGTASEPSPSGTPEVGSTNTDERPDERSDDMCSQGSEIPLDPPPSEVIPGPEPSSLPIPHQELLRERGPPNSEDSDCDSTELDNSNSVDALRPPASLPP
Sequence of Serine/threonine-protein kinase NLK (Homo sapiens) (Q9UBE8 whole entry): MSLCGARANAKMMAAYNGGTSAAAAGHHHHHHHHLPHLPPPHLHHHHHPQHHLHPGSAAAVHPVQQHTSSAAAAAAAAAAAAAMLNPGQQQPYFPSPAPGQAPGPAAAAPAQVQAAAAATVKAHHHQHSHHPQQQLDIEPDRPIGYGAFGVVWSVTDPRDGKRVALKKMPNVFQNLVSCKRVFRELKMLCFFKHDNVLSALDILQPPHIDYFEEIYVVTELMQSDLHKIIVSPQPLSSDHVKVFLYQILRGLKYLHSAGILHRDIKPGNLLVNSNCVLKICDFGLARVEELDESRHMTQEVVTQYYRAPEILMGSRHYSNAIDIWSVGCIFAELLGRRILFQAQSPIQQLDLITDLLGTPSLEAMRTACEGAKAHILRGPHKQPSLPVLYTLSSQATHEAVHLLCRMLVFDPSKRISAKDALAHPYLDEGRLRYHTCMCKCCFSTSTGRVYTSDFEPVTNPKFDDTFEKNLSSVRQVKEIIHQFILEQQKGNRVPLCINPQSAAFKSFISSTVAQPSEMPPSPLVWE
Sequence of Casein kinase I isoform gamma-3 (Homo sapiens) (Q9Y6M4 whole entry, looked up, canonical isoform): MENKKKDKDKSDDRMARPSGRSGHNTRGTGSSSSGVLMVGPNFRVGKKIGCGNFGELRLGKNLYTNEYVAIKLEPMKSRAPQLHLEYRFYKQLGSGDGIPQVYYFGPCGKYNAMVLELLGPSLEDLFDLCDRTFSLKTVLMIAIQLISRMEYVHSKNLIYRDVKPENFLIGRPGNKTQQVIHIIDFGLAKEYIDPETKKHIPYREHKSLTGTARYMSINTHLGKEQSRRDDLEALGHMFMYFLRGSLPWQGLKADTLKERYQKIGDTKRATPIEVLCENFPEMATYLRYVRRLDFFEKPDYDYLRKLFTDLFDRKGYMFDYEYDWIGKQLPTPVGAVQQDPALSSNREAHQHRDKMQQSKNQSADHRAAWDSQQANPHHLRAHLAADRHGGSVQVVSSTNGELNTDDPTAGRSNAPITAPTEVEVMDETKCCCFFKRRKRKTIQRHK
Sequence of 5-hydroxytryptamine receptor 5A (Homo sapiens) (P47898 whole entry): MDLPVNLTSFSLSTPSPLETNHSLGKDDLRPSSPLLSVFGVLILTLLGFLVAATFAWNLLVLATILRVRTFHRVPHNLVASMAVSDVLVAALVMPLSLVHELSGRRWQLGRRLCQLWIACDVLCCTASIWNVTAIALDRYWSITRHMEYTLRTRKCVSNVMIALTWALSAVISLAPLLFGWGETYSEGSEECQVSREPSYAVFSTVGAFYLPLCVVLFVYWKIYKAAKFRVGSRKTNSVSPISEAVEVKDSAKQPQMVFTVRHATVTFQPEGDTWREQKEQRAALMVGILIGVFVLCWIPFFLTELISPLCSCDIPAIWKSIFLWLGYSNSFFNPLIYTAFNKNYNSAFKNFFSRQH
Sequence of RAC-beta serine/threonine-protein kinase (Homo sapiens) (P31751 whole entry): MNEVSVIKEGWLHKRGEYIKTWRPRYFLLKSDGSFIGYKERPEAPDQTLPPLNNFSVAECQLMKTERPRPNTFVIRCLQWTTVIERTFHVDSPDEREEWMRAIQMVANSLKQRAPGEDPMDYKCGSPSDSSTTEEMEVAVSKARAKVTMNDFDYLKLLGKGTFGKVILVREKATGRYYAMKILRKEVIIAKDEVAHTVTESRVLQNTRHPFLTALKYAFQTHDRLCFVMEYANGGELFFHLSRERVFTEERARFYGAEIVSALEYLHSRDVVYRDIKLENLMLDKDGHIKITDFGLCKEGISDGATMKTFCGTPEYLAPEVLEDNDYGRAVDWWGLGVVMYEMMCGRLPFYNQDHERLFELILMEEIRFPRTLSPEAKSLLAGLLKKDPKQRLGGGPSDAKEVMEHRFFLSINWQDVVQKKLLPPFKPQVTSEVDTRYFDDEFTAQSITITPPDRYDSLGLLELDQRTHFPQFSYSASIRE

`Cc1nc(N2CC[C@@H](O)C2)ncc1-c1cc(C(F)(F)F)cc2[nH]ncc12` [TP-004] gave a residual activity [1] of 79%, an inhibition [2] of -2.1% and a residual activity [3] of 77%. For the same molecule, the residual activity [4] was 68%, the residual activity [5] was 81% and the inhibition [6] was 10.8%. For the same molecule, the residual activity [7] was 86%, the residual activity [8] was 74% and the residual activity [9] was 60%. The residual activity [10] was 99%, the residual activity [11] was 76% and the residual activity [12] was 100%. For the same molecule, the residual activity [13] was 36%, the residual activity [14] was 81% and the residual activity [15] was 68%. The residual activity [16] was 100%, the residual activity [17] was 74% and the inhibition [18] was -2.23%. The residual activity [19] was 60%, the residual activity [20] was 87% and the residual activity [21] was 100%. It also gave a residual activity [22] of 78%, a residual activity [23] of 83% and a residual activity [24] of 74%. The residual activity [25] was 85%, the residual activity [26] was 100% and the residual activity [27] was 83%. It also gave a residual activity [28] of 100%, a residual activity [29] of 26% and a residual activity [30] of 69%. The residual activity [31] was 70%, the residual activity [32] was 56% and the residual activity [33] was 61%. The residual activity [34] was 100%, the residual activity [35] was 100% and the residual activity [36] was 85%. For the same molecule, the residual activity [37] was 100%, the residual activity [38] was 90% and the residual activity [39] was 74%. For the same molecule, the residual activity [40] was 51%, the residual activity [41] was 81% and the residual activity [42] was 87%. It also gave a residual activity [43] of 100%, a residual activity [44] of 91% and a residual activity [45] of 75%.
